PubChem BioAssay AID192 (DTP/NCI, 2004)
Values joined by “and” are separate entries in the source; they are usually repeats but may differ in a detail not shown here. Equal values may be shown once. Toxic doses and inconclusive results are not listed.

System: BDF1 mice, B16 melanoma ip, median survival T/C
Assay: NCI In Vivo Anticancer Drug Screen. Data for tumor model B16 Melanoma (intraperitoneal) in B6D2F1 (BDF1) mice
Conditions: endpoint: median survival time, higher = longer survival
In short: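 Vehicle-treated animals serve as the reference (C); treated animals (T) are scored for survival or tumor size after tumor transplantation.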

Compound: O=C1c2ccccc2C(=O)c2c(NCCNCCO)ccc(NCCNCCO)c21
- T/C (dose: 0.25 mg/kg/injection, schedule: Q01DX009 (ip), vehicle: saline with Tween-80): 124 % of control
- T/C (dose: 0.25 mg/kg/injection, schedule: Q01DX009 (ip), vehicle: saline): 110 % of control and 111 % of control
- T/C (dose: 0.5 mg/kg/injection, schedule: Q01DX009 (ip), vehicle: saline with Tween-80): 118 % of control
- T/C (dose: 0.5 mg/kg/injection, schedule: Q01DX009 (ip), vehicle: saline): 118 % of control
- T/C (dose: 1.0 mg/kg/injection, schedule: Q01DX009 (ip), vehicle: other): 124 % of control
- T/C (dose: 1.0 mg/kg/injection, schedule: Q01DX009 (ip), vehicle: saline with Tween-80): 152 % of control
- T/C (dose: 1.0 mg/kg/injection, schedule: Q02DX009 (ip), vehicle: saline): 159 % of control
- T/C (dose: 1.0 mg/kg/injection, schedule: Q03HX016 (ip), vehicle: acid diluted with saline): 161 % of control
- T/C (dose: 1.0 mg/kg/injection, schedule: Q03HX024 (ip), vehicle: acid diluted with saline): 167 % of control
- T/C (dose: 2.0 mg/kg/injection, schedule: Q01DX009 (ip), vehicle: acid diluted with saline): 183 % of control and 208 % of control
- T/C (dose: 2.0 mg/kg/injection, schedule: Q01DX009 (ip), vehicle: saline with Tween-80): 175 % of control
- T/C (dose: 2.0 mg/kg/injection, schedule: Q01DX009 (ip), vehicle: water): 168 % of control
- T/C (dose: 2.0 mg/kg/injection, schedule: Q03HX008 (ip), vehicle: acid diluted with saline): 157 % of control
- T/C (dose: 2.0 mg/kg/injection, schedule: Q03HX016 (ip), vehicle: acid diluted with saline): 202 % of control
- T/C (dose: 2.0 mg/kg/injection, schedule: Q03HX024 (ip), vehicle: acid diluted with saline): 209 % of control
- T/C (dose: 2.0 mg/kg/injection, schedule: Q03HX024 (ip), vehicle: saline): 123 % of control
- T/C (dose: 4.0 mg/kg/injection, schedule: Q01DX005 (ip), vehicle: saline): 151 % of control
- T/C (dose: 4.0 mg/kg/injection, schedule: Q01DX005 (iv), vehicle: saline): 106 % of control
- T/C (dose: 4.0 mg/kg/injection, schedule: Q01DX009 (ip), vehicle: Klucel (hydroxypropylcellulose) (HPC)): 180 % of control
- T/C (dose: 4.0 mg/kg/injection, schedule: Q01DX009 (ip), vehicle: saline with Tween-80): 154 % of control and 188 % of control
- T/C (dose: 4.0 mg/kg/injection, schedule: Q01DX009 (ip), vehicle: water): 169 % of control and 172 % of control and 211 % of control
- T/C (dose: 4.0 mg/kg/injection, schedule: Q01DX009 (sc), vehicle: acid diluted with saline): 121 % of control
- T/C (dose: 4.0 mg/kg/injection, schedule: Q01DX009 (sc), vehicle: saline): 108 % of control
- T/C (dose: 4.0 mg/kg/injection, schedule: Q02DX009 (ip), vehicle: saline): 170 % of control and 188 % of control
- T/C (dose: 4.0 mg/kg/injection, schedule: Q03HX008 (ip), vehicle: acid diluted with saline): 206 % of control
- T/C (dose: 4.0 mg/kg/injection, schedule: Q03HX016 (ip), vehicle: acid diluted with saline): 204 % of control
- T/C (dose: 4.0 mg/kg/injection, schedule: Q03HX024 (ip), vehicle: saline): 207 % of control
- T/C (dose: 8.0 mg/kg/injection, schedule: Q01DX005 (ip), vehicle: acid diluted with saline): 192 % of control
- T/C (dose: 8.0 mg/kg/injection, schedule: Q01DX005 (iv), vehicle: saline): 106 % of control
- T/C (dose: 8.0 mg/kg/injection, schedule: Q01DX009 (ip), vehicle: Klucel (hydroxypropylcellulose) (HPC)): 158 % of control
- T/C (dose: 8.0 mg/kg/injection, schedule: Q01DX009 (ip), vehicle: other): 180 % of control
- T/C (dose: 8.0 mg/kg/injection, schedule: Q01DX009 (ip), vehicle: saline with Tween-80): 159 % of control and 190 % of control
- T/C (dose: 8.0 mg/kg/injection, schedule: Q01DX009 (oral), vehicle: acid diluted with saline): 98 % of control
- T/C (dose: 8.0 mg/kg/injection, schedule: Q01DX009 (sc), vehicle: acid diluted with saline): 111 % of control
- T/C (dose: 8.0 mg/kg/injection, schedule: Q01DX009 (sc), vehicle: saline): 123 % of control
- T/C (dose: 8.0 mg/kg/injection, schedule: Q02DX009 (ip), vehicle: saline): 191 % of control
- T/C (dose: 8.0 mg/kg/injection, schedule: Q03HX008 (ip), vehicle: acid diluted with saline): 192 % of control
- T/C (dose: 8.0 mg/kg/injection, schedule: Q04DX003 (ip), vehicle: acid diluted with saline): 195 % of control
- T/C (dose: 8.0 mg/kg/injection, schedule: Q08DX002 (ip), vehicle: acid diluted with saline): 178 % of control
- T/C (dose: 8.0 mg/kg/injection, schedule: Q08DX002 (ip), vehicle: saline): 119 % of control
- T/C (dose: 16.0 mg/kg/injection, schedule: Q01DX001 (ip), vehicle: acid diluted with saline): 156 % of control
- T/C (dose: 16.0 mg/kg/injection, schedule: Q01DX001 (oral), vehicle: saline): 108 % of control
- T/C (dose: 16.0 mg/kg/injection, schedule: Q01DX001 (sc), vehicle: acid diluted with saline): 102 % of control
- T/C (dose: 16.0 mg/kg/injection, schedule: Q01DX005 (ip), vehicle: saline): 166 % of control
- T/C (dose: 16.0 mg/kg/injection, schedule: Q01DX005 (iv), vehicle: saline): 116 % of control
- T/C (dose: 16.0 mg/kg/injection, schedule: Q01DX009 (ip), vehicle: Klucel (hydroxypropylcellulose) (HPC)): 173 % of control
- T/C (dose: 16.0 mg/kg/injection, schedule: Q01DX009 (ip), vehicle: saline with Tween-80): 186 % of control
- T/C (dose: 16.0 mg/kg/injection, schedule: Q01DX009 (oral), vehicle: acid diluted with saline): 109 % of control
- T/C (dose: 16.0 mg/kg/injection, schedule: Q01DX009 (oral), vehicle: saline): 101 % of control
- T/C (dose: 16.0 mg/kg/injection, schedule: Q01DX009 (sc), vehicle: acid diluted with saline): 156 % of control
- T/C (dose: 16.0 mg/kg/injection, schedule: Q02DX009 (ip), vehicle: saline): 180 % of control
- T/C (dose: 16.0 mg/kg/injection, schedule: Q03HX008 (ip), vehicle: acid diluted with saline): 209 % of control
- T/C (dose: 16.0 mg/kg/injection, schedule: Q03HX008 (ip), vehicle: saline): 117 % of control
- T/C (dose: 16.0 mg/kg/injection, schedule: Q03HX016 (ip), vehicle: acid diluted with saline): 98 % of control
- T/C (dose: 16.0 mg/kg/injection, schedule: Q04DX003 (ip), vehicle: acid diluted with saline): 204 % of control
- T/C (dose: 16.0 mg/kg/injection, schedule: Q08DX002 (ip), vehicle: acid diluted with saline): 173 % of control
- T/C (dose: 16.0 mg/kg/injection, schedule: Q08DX002 (ip), vehicle: saline): 112 % of control
- T/C (dose: 18.75 mg/kg/injection, schedule: Q01DX001 (ip), vehicle: Klucel (hydroxypropylcellulose) (HPC)): 111 % of control
- T/C (dose: 32.0 mg/kg/injection, schedule: Q01DX001 (ip), vehicle: acid diluted with saline): 157 % of control
- T/C (dose: 32.0 mg/kg/injection, schedule: Q01DX001 (ip), vehicle: saline): 157 % of control
- T/C (dose: 32.0 mg/kg/injection, schedule: Q01DX001 (oral), vehicle: saline): 106 % of control
- T/C (dose: 32.0 mg/kg/injection, schedule: Q01DX001 (sc), vehicle: acid diluted with saline): 100 % of control
- T/C (dose: 32.0 mg/kg/injection, schedule: Q01DX005 (ip), vehicle: saline): 181 % of control
- T/C (dose: 32.0 mg/kg/injection, schedule: Q01DX005 (iv), vehicle: saline): 119 % of control
- T/C (dose: 32.0 mg/kg/injection, schedule: Q01DX009 (oral), vehicle: acid diluted with saline): 113 % of control
- T/C (dose: 32.0 mg/kg/injection, schedule: Q01DX009 (oral), vehicle: saline): 112 % of control
- T/C (dose: 32.0 mg/kg/injection, schedule: Q01DX009 (sc), vehicle: acid diluted with saline): 114 % of control
- T/C (dose: 32.0 mg/kg/injection, schedule: Q01DX009 (sc), vehicle: saline): 100 % of control
- T/C (dose: 32.0 mg/kg/injection, schedule: Q02DX009 (ip), vehicle: saline): 196 % of control
- T/C (dose: 32.0 mg/kg/injection, schedule: Q04DX003 (ip), vehicle: saline): 153 % of control
- T/C (dose: 32.0 mg/kg/injection, schedule: Q08DX002 (ip), vehicle: acid diluted with saline): 196 % of control
- T/C (dose: 50.0 mg/kg/injection, schedule: Q01DX001 (ip), vehicle: water): 151 % of control
- T/C (dose: 64.0 mg/kg/injection, schedule: Q01DX001 (ip), vehicle: acid diluted with saline): 154 % of control
- T/C (dose: 64.0 mg/kg/injection, schedule: Q01DX001 (ip), vehicle: saline): 151 % of control
- T/C (dose: 64.0 mg/kg/injection, schedule: Q01DX001 (oral), vehicle: acid diluted with saline): 109 % of control
- T/C (dose: 64.0 mg/kg/injection, schedule: Q01DX001 (oral), vehicle: saline): 116 % of control
- T/C (dose: 64.0 mg/kg/injection, schedule: Q01DX001 (sc), vehicle: acid diluted with saline): 114 % of control
- T/C (dose: 64.0 mg/kg/injection, schedule: Q01DX009 (oral), vehicle: acid diluted with saline): 100 % of control
- T/C (dose: 64.0 mg/kg/injection, schedule: Q01DX009 (oral), vehicle: saline): 112 % of control
- T/C (dose: 64.0 mg/kg/injection, schedule: Q02DX009 (ip), vehicle: saline): 89 % of control
- T/C (dose: 64.0 mg/kg/injection, schedule: Q04DX003 (ip), vehicle: saline): 213 % of control
- T/C (dose: 64.0 mg/kg/injection, schedule: Q08DX002 (ip), vehicle: acid diluted with saline): 178 % of control
- T/C (dose: 64.0 mg/kg/injection, schedule: Q08DX002 (ip), vehicle: saline): 179 % of control
- T/C (dose: 128.0 mg/kg/injection, schedule: Q01DX001 (oral), vehicle: acid diluted with saline): 105 % of control
- T/C (dose: 128.0 mg/kg/injection, schedule: Q01DX001 (oral), vehicle: saline): 106 % of control
- T/C (dose: 128.0 mg/kg/injection, schedule: Q01DX009 (oral), vehicle: acid diluted with saline): 115 % of control
- T/C (dose: 128.0 mg/kg/injection, schedule: Q01DX009 (oral), vehicle: saline): 112 % of control
- T/C (dose: 128.0 mg/kg/injection, schedule: Q08DX002 (ip), vehicle: saline): 106 % of control
- T/C (dose: 256.0 mg/kg/injection, schedule: Q01DX001 (oral), vehicle: acid diluted with saline): 96 % of control
- T/C (dose: 256.0 mg/kg/injection, schedule: Q01DX001 (oral), vehicle: saline): 116 % of control
- T/C (dose: 512.0 mg/kg/injection, schedule: Q01DX001 (oral), vehicle: saline): 97 % of control
